From US20090197914A1, “Piperidine Derivatives, Their Process for Preparation, Their Use as Therapeutic Agents and Pharmaceutical Compositions Containing Them” (priority 2006, published 2009) come the findings set out here.

Series [1] can be described thus: Intrinsic clearance with human liver microsomes. Type of series: in vitro ADME. Particulars: human liver microsomes 1 mg protein/ml, NADPH, pH 7.4. Here is the method:
Determination of Intrinsic Clearance with Human Liver Microsomes
Frozen human liver microsomes (BD Gentest, Oxford) were defrosted and were then diluted with 0.1 M pH 7.4 phosphate buffer at 4° C. to 1 mg protein/ml. 0.45 mL aliquots of the microsome suspension were dispensed into flat-bottomed vials (1 per compound) and were allowed to come to room temperature (5 min). During the warming time, 5 μL of solution of each test compound (typically 100 μM in DMSO) was dispensed into separate vials resulting in a final DMSO concentration of 1%. 50 μL of a 10 mM solution of NADPH in phosphate buffer (0.1 M pH 7.4, 37° C.) was added to each vial to initiate metabolism.
50 μL Aliquots of the mixtures were removed at measured intervals and were immediately quenched by addition to 100 μL of methanol cooled in ice. The quenched samples were kept cold (at −20° C. or less) for at least 1 h and were then centrifuged to remove protein.
The supernatant solution was analysed using quantitative LCMS for the presence of test compound. From the concentrations of test compound at different time points a T1/2 may be calculated which may be converted to an intrinsic clearance using the equation: CLint=ln 2/T1/2.

For series [2], the target named is T1, human recombinant CCR3 receptors (Homo sapiens, UniProt P51677).
T1 construct: expressed in transfected cells; membranes
T1 sequence (P51677 1-355): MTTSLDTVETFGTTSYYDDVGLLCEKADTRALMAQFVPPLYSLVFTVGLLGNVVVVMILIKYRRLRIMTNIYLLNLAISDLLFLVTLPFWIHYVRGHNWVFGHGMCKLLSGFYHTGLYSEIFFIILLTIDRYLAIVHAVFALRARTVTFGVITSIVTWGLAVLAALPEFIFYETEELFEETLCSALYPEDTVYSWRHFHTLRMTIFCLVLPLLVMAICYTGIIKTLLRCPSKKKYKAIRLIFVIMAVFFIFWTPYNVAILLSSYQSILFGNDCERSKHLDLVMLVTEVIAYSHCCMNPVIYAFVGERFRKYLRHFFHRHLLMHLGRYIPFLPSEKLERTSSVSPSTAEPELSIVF
As to the kind of experiment: Compound affinity at human recombinant CCR3 receptors by radioligand competition, CHO-K1 cell membranes. Particulars: mean pKi by Cheng-Prussof correction of pIC50, minimum of 2 separate experiments, 2 nM [3H] ligand, 2 h at 37° C. Type of series: binding. Here is the method: Determination of Compound Affinity at Human Recombinant CCR3 Receptors Assessed By Competition of [^3H]-4-(2,4-dichloro-3-methylphenoxy)-1′-[4-(methylsulfonyl)benzoyl]-1,4′-bipiperidine for CHO-K1 Cell Membranes In Vitro
Membranes, prepared from CHO-K1 cells stably expressing recombinant human CCR3, suspended in assay buffer (50 mM Tris-Base, pH 7.4; containing sodium chloride (100 mM) and magnesium chloride (2 mM)) were incubated in the presence of 2 nM [^3H]-4-(2,4-dichloro-3-methylphenoxy)-1′-[4-(methylsulfonyl)benzoyl]-1,4′-bipiperidine, along with vehicle (1% (v/v) DMSO), 4-(4-chloro-3-methylphenoxy)-1′-[2-(methylsulfonyl)benzoyl]-1,4′-bipiperidine (to define non-specific binding) or test compound for 2 h at 37° C. in round bottomed 96-well plates. […] Four washes (250 μL) with wash buffer (50 mM Tris-Base, pH 7.4 containing sodium chloride (500 mM) and magnesium chloride (2 mM)) were performed at 4° C. to remove unbound radioactivity. […] The plates were sealed (TopSeal A) and filter-bound radioactivity was measured with a scintillation counter (TopCount, Packard BioScience) using a 1 minute counting protocol.
Specific binding was determined from values of the control wells minus the values for the NSB wells for each assay plate. […] Data were presented as mean pKi values (calculated by applying a Cheng-Prussof correction to pIC50 values) from a minimum of 2 separate experiments.

Each structure is given as a SMILES string. A value given as a limit tells only on which side of the number the result lay.

In series [1], `Cc1c(CN2CCC(NC(=O)COc3nc(N)c(C(=O)O)cc3F)CC2)ccc(Cl)c1Cl` [Example 4, 2-Amino-6-{[1-(3,4-dichloro-2-methyl-benzyl)-piperidin-4-ylcarbamoyl]-methoxy}-5-fluoro-nicotinic acid] came in with a CLint scaled at 1 µM of under 3 mL/min/kg. Further, the Ki in series [2] is 3.16 nM.
